The source of these data is patent US20050250799A1, “Protease inhibitors for treatment of wrinkles” (priority 2004, published 2005).

pKi: −log10 of the molar value. Where only a bound is given, the exact number is not on record here.

Data set [1] relates to UVB-induced wrinkle formation. The data set is described as follows: Example 6: UVB-induced skin wrinkling. The format is in vivo, Skh-1 hairless mice. To be noted: UVB + 0.1% in 25% DMSO + 75% ethanol, 100 μl on back skin three times weekly, 10 weeks; category 0 (no wrinkle) to 4 (severe wrinkle).
Data set [2] deals with UVB-induced vessel dilation. The data set is described as follows: Example 6: dermal blood vessel area (CD31 staining) after UVB. The format is in vivo, Skh-1 hairless mice. Conditions: UVB + 0.1% in 25% DMSO + 75% ethanol, 100 μl on back skin three times weekly, 10 weeks; dermis.
The test system of a further data set is back skin of mice. The data set is described as follows: Example 5: skin irritation score on back skin. Format: in vivo, mice (FVB strain). To be noted: 0.1% in 25% DMSO + 75% ethanol, 5 μl on back skin, score 0 (no erythema) to 4. As to the method:
The hair of the back skin of mice (FVB strain, female, 7 weeks of age, n=3/group) was clipped by an electric clipper on day 0. 5 μl of test sample solution (˜1 cm diameter) was applied on the back skin. After 24 hours (day 1), skin irritation was measured on the basis of a scoring system (0: no erythema; 1: very slight erythema; 2: well-defined erythema; 3: moderate erythema; 4: several erythema and edema) and a second dose administered. After a second 24 hours (day 2), skin irritation was measured and a third dose administered. After a third 24 hours (day 3), skin irritation was again measured.

A further data set has as its target T1, caspase 7 (Homo sapiens, UniProt P55210).
T1 sequence (P55210 24-198 limits assumed): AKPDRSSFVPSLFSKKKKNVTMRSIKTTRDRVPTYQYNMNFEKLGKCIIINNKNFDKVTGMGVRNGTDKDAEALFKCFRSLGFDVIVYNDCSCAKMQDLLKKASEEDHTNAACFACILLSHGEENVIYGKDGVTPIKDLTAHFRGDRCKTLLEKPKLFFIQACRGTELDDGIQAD
T1 sequence (P55210 207-303 limits assumed): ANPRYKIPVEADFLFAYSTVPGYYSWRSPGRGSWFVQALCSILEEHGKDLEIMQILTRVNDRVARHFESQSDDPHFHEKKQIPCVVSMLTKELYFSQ
To be noted: cited from earlier work.

For the next data set, the target named is T2, caspase 3 (Homo sapiens, UniProt P42574).
T2 sequence (P42574 29-175 limits assumed): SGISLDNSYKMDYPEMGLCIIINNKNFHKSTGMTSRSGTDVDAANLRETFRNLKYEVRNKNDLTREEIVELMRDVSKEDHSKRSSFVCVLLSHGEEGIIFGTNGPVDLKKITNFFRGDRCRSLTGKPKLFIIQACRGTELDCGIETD
T2 sequence (P42574 176-277 limits assumed): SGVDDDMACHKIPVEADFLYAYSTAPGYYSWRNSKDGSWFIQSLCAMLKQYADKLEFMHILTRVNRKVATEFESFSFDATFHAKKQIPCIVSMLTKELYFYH
Conditions: cited from earlier work.

The next data set addresses T3, caspase 1 (Homo sapiens, UniProt P29466).
T3 sequence (P29466 120-297 limits assumed): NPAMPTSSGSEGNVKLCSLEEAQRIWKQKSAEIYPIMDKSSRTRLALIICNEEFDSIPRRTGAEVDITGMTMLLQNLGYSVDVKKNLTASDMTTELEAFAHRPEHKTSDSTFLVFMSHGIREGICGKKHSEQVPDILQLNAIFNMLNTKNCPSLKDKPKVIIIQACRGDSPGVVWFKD
T3 sequence (P29466 317-404 limits assumed): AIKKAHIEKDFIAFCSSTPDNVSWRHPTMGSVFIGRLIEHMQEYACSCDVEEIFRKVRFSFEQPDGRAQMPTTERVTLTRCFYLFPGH
To be noted: cited from earlier work.

The target in a further data set is T4, caspase 4 (Homo sapiens, UniProt P49662).
T4 sequence (P49662 81-270 limits assumed): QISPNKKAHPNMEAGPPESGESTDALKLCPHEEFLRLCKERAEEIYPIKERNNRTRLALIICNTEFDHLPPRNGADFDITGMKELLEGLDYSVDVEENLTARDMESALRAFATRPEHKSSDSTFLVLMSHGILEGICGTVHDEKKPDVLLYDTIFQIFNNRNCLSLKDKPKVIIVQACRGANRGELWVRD
T4 sequence (P49662 290-377 limits assumed): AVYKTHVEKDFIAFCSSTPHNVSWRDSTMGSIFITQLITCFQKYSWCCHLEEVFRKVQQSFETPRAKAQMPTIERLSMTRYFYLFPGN
To be noted: cited from earlier work.

Regarding `CC(C)C[C@H](CC(=O)NO)C(=O)N[C@@H](Cc1ccc2ccccc2c1)C(=O)N[C@@H](C)C(N)=O` [TAPI-0], the “Wrinkle category (mean)” value in data set [1] was found to be 1.00. In data set [2], the “Percent of vessel area (mean)” value was 8.9%.
Turning to `NC[C@H]1CC[C@H](C(=O)O)CC1` [Tranexamic acid], the “Wrinkle category (mean)” value in data set [1] was determined as 2.00. The skin irritation score in the data set on back skin of mice (day 0), in the data set on back skin of mice (day 1), in the data set on back skin of mice (day 2) and in the data set on back skin of mice (day 3) was 0 throughout. Further, the “Percent of vessel area (mean)” value in data set [2] is listed as 8.7%.
What is called pKi is the Ki on a negative log10 scale, so that one unit is a factor of ten. Ac-YVAD-CHO: the pKi is at most 4.30 at caspase 7, at most 4.30 on caspase 3, around 8.00 at caspase 1 and around 8.00 at caspase 4.
For the compound zVAD-FMK, in data set [1], the “Wrinkle category (mean)” value stood at 1.67. Moreover, in data set [2], the “Percent of vessel area (mean)” value is listed as 8.8%. The inhibition entry on caspase 7, on caspase 3, on caspase 1 and at caspase 4 was “inhibits” in each case.
